The record followed here is patent US20230219964A1, “ANTIBACTERIAL AND ANTIFUNGAL PLEUROMUTILIN CONJUGATES” (SYDDANSK UNIVERSITET, priority 2020, published 2023).

Test [1] relates to vancomycin-resistant enterococci (VRE) cells, VRE 1. Nature of the test: MIC in vitro broth micro-dilution assay, VRE 1. The following applies: lowest concentration to fully inhibit visible growth (OD600), clinical isolate, ampicillin, ciprofloxacin and vancomycin resistant; for MIC: Enterococcus, VRE, read-out: in vitro susceptibility (MIC) VRE 1. The test is classed as cell-based. How it is done:
(§1) Bacterial susceptibility was established through an in vitro cell-based broth micro-dilution assay. To produce accurate and reproducible MIC-values, a procedure was used which follows the guidelines set by the Clinical and Laboratory Standards Institute (CLSI, USA) and the European Committee on Antimicrobial Susceptibility Testing (EUCAST). The micro-dilutions were carried out in 96-well plates, according to FIG. 3, wherein column 1 is a growth control, Columns 2 to 11 are dilutions of 1×, 2×, 4×, 8×, 16×, 32×, 64×, 128×, 256×, 512× respectively, and column 12 is a sterile control. To further increase the reliability of each susceptibility test, inoculation involved the use of three independent overnight cultures (ON1-ON3) thus giving rise to […]. Furthermore, each ON was added to two individual dilution rows, giving rise to […]. The standard inoculum was set to ˜5-10^5 colony-forming units (CFU) mL^−1. This was verified by dilution onto agar plates after each overall run.
(§2) The applied procedure was:
(§3) 1.1 MH or BHI agar plates for dilutions were created, 1 plate per overnight (ON) culture and MH or BHI media. 1.2 Day 1: Preparation of ON cultures of the bacterial strain in question, by inoculation of a single colony in 5 mL of MH or BHI media. Then incubation at 37° C. with aeration for approximately 16-20 hours. Biological triplicates were created by inoculation from 3 different colonies per strain.
(§4) 1.3 Day 2: A 96-well plate with the antibiotic/compound in question was prepared as according to FIG. 3: 1.4 In a 15 mL falcon tube, an appropriate volume of a 1000 μg/mL antibiotic/compound DMSO stock was diluted with MH or BHI media such that a 2× concentration and total volume of 10 mL was achieved. 1.5 A multi-channel pipette was used in the following. 1.6 Column 1 was used for growth control, so no antibiotic/compound was added to that column. 1.7 200 μl of 2× concentration of the antibiotic/compound was added to column 2. Technical duplicates were always created, thus 2 columns per ON culture. 1.8 100 μl of MH or BHI media was added to columns 1, 3-11 and 200 μl of MH or BHI media to column 12. 1.9 100 μl was transferred from column 2 to column 3. The same pipetting tips were used to transfer 100 μL from column 3 to 4. This scheme was repeated until column 11 where 100 μl was discarded after re-suspending. Column 12 was used as a sterile control, so no antibiotic/compound was added to that column. Each transferring involved pipetting up and down 5 to 7 times. 1.10 The plates were fully dried for CFU in the 42° C. incubator, 4× dilutions in triplicates per one plate.
(§5) 1.11 The optical density of bacterial cells in the ON culture was measured at wavelength 600 nm (OD600). Then the ON culture was diluted to an OD600=0.1. 1.12 Then the OD600 was re-measured to make certain that it was between 0.08 and 0.13. 1.13 The prepared 0.1 culture of 1.12 was diluted 100× more by transferring of 100 μl thereof, to 10 ml of MH or BHI media (enough for a 96-well plate). 1.14 Then 200 μl of the 100× dilution in 1.13 was transferred to Eppendorf tubes and kept cold until use. 1.15 100 μl of culture with an OD600 on approximately 0.001 was dispensed to each well of columns 1 to 11. 1.16 The plate was closed. Covered with aluminium foil and small holes were created with a 100-200 μL tip.
(§6) 1.17 The 96-well plate was then incubated at 37° C. with agitation and left for 16-hours.
(§7) 1.18 Verification of standard inoculum: The 100× diluted culture of 1.13 was used to create 10^−1 to 10^−4 dilutions in PBS/0.9% saline (100 μl sample to 900 μl PBS, mix well and continue until 10^−4). 1.19 10 μl of the 10^−2, 10^−3 and 10^−4 dilutions in 1.18 were spotted onto very dry MH or BHI plates in triplicates. 1.20 Then incubated overnight at 37° C. 1.21 The plates were examined manually or by using the plate reader.
A general note: Broth dilution looks for growth in wells or tubes with falling amounts of substance.

Test [2] concerns vancomycin-resistant enterococci (VRE) cells, VRE 5. Nature of the test: MIC in vitro broth micro-dilution assay, VRE 5. The test is classed as cell-based. The note with it: lowest concentration to fully inhibit visible growth (OD600), clinical isolate, ampicillin, ciprofloxacin, vancomycin and linezolid resistant; for MIC: Enterococcus, VRE, read-out: in vitro susceptibility (MIC) VRE 5. How it is done: as §1, §2, §3, §4, §5, §6, §7

In a further test the test system is S. pneumonia cells. The test can be described thus: MIC in vitro broth micro-dilution assay, S. pneumonia. The test is classed as cell-based, Streptococcus pneumonia. The note with it: lowest concentration to fully inhibit visible growth (OD600), clinical isolate; for MIC: Streptococcus pneumoniae, read-out: in vitro susceptibility (MIC) S. Pneumonia. On the procedure: as §1, §2, §3, §4, §5, §6, §7

The test system of test [3] is Multi-resistant Staphylococcus aureus (MRSA) USA300 cells. The test can be described thus: MIC in vitro broth micro-dilution assay, MRSA USA300. Type of test: cell-based. The note with it: lowest concentration to fully inhibit visible growth (OD600), ATCC strain; for MIC: Staphylococcus aureus, read-out: in vitro susceptibility (MIC) MRSA USA3000. On the procedure:
as §1, §2, §3, §4, §5, §6, §7

The next test has as its system E. faecalis cells. The test can be described thus: MIC in vitro broth micro-dilution assay, E. faecalis. Type of test: cell-based, Enterococcus faecalis. The following applies: lowest concentration to fully inhibit visible growth (OD600), clinical isolate; for MIC: Enterococcus faecalis, read-out: in vitro susceptibility (MIC) E. Faecalis. How it is done: as §1, §2, §3, §4, §5, §6, §7

Converted amounts (≈) assume the structure as drawn.

As for `C=C[C@]1(C)C[C@@H](OC(=O)Cn2cc(-c3ccc(Cn4cnc5c(N6CCNCC6)ncnc54)nc3)nn2)[C@]2(C)[C@H](C)CC[C@]3(CCC(=O)[C@H]32)[C@@H](C)[C@@H]1O` [C10, 22-[4-(6-((6-(piperazin-1-yl)-9H-purin-9-yl)methyl)pyridin-3-yl)-1H-1,2,3-triazol-1-yl]-22-deoxypleuromutilin], the MIC in test [1] was 0.03 µg/mL (≈ 0.0415 µM); in test [2] it was 0.12 µg/mL (≈ 0.166 µM); in the test on S. pneumonia cells, 0.03 µg/mL (≈ 0.0415 µM); in test [3], 0.12 to 0.25 µg/mL (≈ 0.166 to 0.346 µM); in the test on E. faecalis cells, 0.03 µg/mL (≈ 0.0415 µM).
Turning to `C=C[C@]1(C)C[C@@H](OC(=O)Cn2cc(-c3ccc(Cn4cnc5c(N6CCNCC6)ncnc54)cc3)nn2)[C@]2(C)[C@H](C)CC[C@]3(CCC(=O)[C@H]32)[C@@H](C)[C@@H]1O` [C11, 22-[4-(4-((6-(piperazin-1-yl)-9H-purin-9-yl)methyl)phenyl)-1H-1,2,3-triazol-1-yl]-22-deoxypleuromutilin], the MIC was determined as 0.06 µg/mL (≈ 0.0831 µM) in test [1]; 0.12 µg/mL (≈ 0.166 µM) in test [2]; 0.12 µg/mL (≈ 0.166 µM) in the test on S. pneumonia cells; 0.25 µg/mL (≈ 0.346 µM) in test [3]; 0.12 µg/mL (≈ 0.166 µM) in the test with E. faecalis cells.
For `C=C[C@]1(C)C[C@@H](OC(=O)Cn2cc(-c3ccc([C@@H](C)n4cnc5c(N)ncnc54)cc3)nn2)[C@]2(C)[C@H](C)CC[C@]3(CCC(=O)[C@H]32)[C@@H](C)[C@@H]1O` [C12, 22-[4-(4-((R)-1-(6-amino-9H-purin-9-yl)ethyl)phenyl)-1H-1,2,3-triazol-1-yl]-22-deoxypleuromutilin], the MIC in test [1] stood at 0.25 µg/mL (≈ 0.375 µM); in test [2], 0.25 µg/mL (≈ 0.375 µM); with S. pneumonia cells, 0.25 µg/mL (≈ 0.375 µM); in test [3] it was 0.12 µg/mL (≈ 0.18 µM); in the test on E. faecalis cells it was 0.25 µg/mL (≈ 0.375 µM).
For `C=C[C@]1(C)C[C@@H](OC(=O)Cn2cc(-c3ccc([C@@H](C)n4cnc5c(N6CCNCC6)ncnc54)cc3)nn2)[C@]2(C)[C@H](C)CC[C@]3(CCC(=O)[C@H]32)[C@@H](C)[C@@H]1O` [C13, 22-[4-(4-((R)-1-(6-(piperazin-1-yl)-9H-purin-9-yl)ethyl)phenyl)-1H-1,2,3-triazol-1-yl]-22-deoxypleuromutilin], the MIC was 0.25 µg/mL (≈ 0.34 µM) in test [1]; 0.12 to 0.25 µg/mL (≈ 0.163 to 0.34 µM) in test [2]; 0.25 µg/mL (≈ 0.34 µM) in the test with S. pneumonia cells; 0.5 µg/mL (≈ 0.679 µM) in test [3]; 0.25 µg/mL (≈ 0.34 µM) with E. faecalis cells.
Consider `C=C[C@]1(C)C[C@@H](OC(=O)Cn2cc(-c3cccc(NC(=O)c4ccc(OC)cc4)c3)nn2)[C@]2(C)[C@H](C)CC[C@]3(CCC(=O)[C@H]32)[C@@H](C)[C@@H]1O` [C15, 22-[4-(3-(4-methoxybenzamido)phenyl)-1,2,3-triazole-1-yl]-22-deoxypleuromutilin], for which the MIC is 0.12 µg/mL (≈ 0.183 µM) in test [1]; 0.25 µg/mL (≈ 0.382 µM) in test [2]; 0.25 µg/mL (≈ 0.382 µM) with S. pneumonia cells; 0.12 µg/mL (≈ 0.183 µM) in test [3]; 0.25 µg/mL (≈ 0.382 µM) with E. faecalis cells.
For `C=C[C@]1(C)C[C@@H](OC(=O)Cn2cc(-c3cccc(Nc4ncnc5[nH]cnc45)c3)nn2)[C@]2(C)[C@H](C)CC[C@]3(CCC(=O)[C@H]32)[C@@H](C)[C@@H]1O` [C18, 22-[4-(3-((9H-purin-6-yl)amino)phenyl)-1,2,3-triazole-1-yl]-22-deoxypleuromutilin], the MIC came out at 0.25 µg/mL (≈ 0.391 µM) in test [1]; 0.25 µg/mL (≈ 0.391 µM) in test [2]; 0.5 µg/mL (≈ 0.783 µM) in the test with S. pneumonia cells; 0.06 µg/mL (≈ 0.0939 µM) in test [3]; 0.5 µg/mL (≈ 0.783 µM) in the test on E. faecalis cells.
As for `C=C[C@]1(C)C[C@@H](OC(=O)Cn2cc(-c3cc(C#N)ccc3O)nn2)[C@]2(C)[C@H](C)CC[C@]3(CCC(=O)[C@H]32)[C@@H](C)[C@@H]1O` [C19, 22-[4-(5-cyano-2-hydroxyphenyl)-1H-1,2,3-triazol-1-yl]-22-deoxypleuromutilin], the MIC in test [1] came out at 1 µg/mL (≈ 1.83 µM); in test [2] it was 1 µg/mL (≈ 1.83 µM); with S. pneumonia cells, 4 µg/mL (≈ 7.32 µM); in test [3], 0.25 µg/mL (≈ 0.457 µM); in the test on E. faecalis cells, 2 µg/mL (≈ 3.66 µM).
Regarding `C=C[C@]1(C)C[C@@H](OC(=O)Cn2cc(-c3ccc(Cn4cc(C)c(=O)[nH]c4=O)cc3)nn2)[C@]2(C)[C@H](C)CC[C@]3(CCC(=O)[C@H]32)[C@@H](C)[C@@H]1O` [C20, 22-[4-(4-((Thymine-1-yl)methyl)phenyl)-1,2,3-triazol-1-yl]-22-deoxypleuromutilin], the MIC amounted to 0.5 µg/mL (≈ 0.777 µM) in test [1]; 0.5 µg/mL (≈ 0.777 µM) in test [2]; 1 µg/mL (≈ 1.55 µM) in the test with S. pneumonia cells; 0.12 µg/mL (≈ 0.186 µM) in test [3]; 1 µg/mL (≈ 1.55 µM) in the test on E. faecalis cells.
As to Retapamulin [reference compound], the “in vitro susceptibility (MIC) VRE 1” value in test [1] came out at 0.03 µg/mL. The “in vitro susceptibility (MIC) VRE 5” value in test [2] was found to be 0.03 µg/mL. For the same compound, the “in vitro susceptibility (MIC) S. Pneumonia” value in the test on S. pneumonia cells is 0.12 µg/mL. Also, the “in vitro susceptibility (MIC) MRSA USA3000” value in test [3] was found to be 0.25 µg/mL. The “in vitro susceptibility (MIC) E. Faecalis” value in the test on E. faecalis cells was 0.12 µg/mL.
Consider Valnemulin [reference compound], for which the “in vitro susceptibility (MIC) VRE 1” value in test [1] is 0.03 µg/mL. Moreover, the “in vitro susceptibility (MIC) VRE 5” value in test [2] came out at 0.015 µg/mL. In addition, the “in vitro susceptibility (MIC) S. Pneumonia” value in the test on S. pneumonia cells is 0.06 to 0.12 µg/mL. For the same compound, the “in vitro susceptibility (MIC) MRSA USA3000” value in test [3] worked out at 0.06 µg/mL. The “in vitro susceptibility (MIC) E. Faecalis” value in the test with E. faecalis cells was found to be 0.03 µg/mL.

One may read the MIC as the least concentration at which growth counts as inhibited.
